“And” between values parts separate entries of the source, which are not always exact repeats. Equal values may be shown once. Read-outs that look alike come from different tables or passages of the source. Positions of bridges follow the written chain, without caps; N, C: chain ends. Non-standard residues stand in square brackets, D forms with d. Residues, ends and D or L forms follow the SMILES beside them.
Columns and labels:
[1] = Pharmacokinetics of GPR-405 given at 1 mg/kg sc in CD1 mice; assay type: in vivo, mouse
Procedure: The study described herein involved single (mouse) or multiple (rat) blood collections after test article administration. Test articles are given by oral (PO), intravenous (IV), subcutaneous (SC) or intraperitoneal (IP) routes. All animals have a five day acclimatization period before dosing. Body weights are recorded prior to dosing. For mouse PK, 3 animals per group per time point are used (terminal bleed). For rats, multiple blood samplings per animal (adequately spaced in time) are taken. At the end of the study, all animals are euthanized by CO2 and final blood sample was collected via cardiac puncture.
Preparations are performed under a laminar flow hood using clean procedures. The formulations are kept at in a refrigerator set to maintain 4° C. before use. The dose volume for each animal is based on the most recent body weight measurement.
for PO administration, animal has either restricted access to food until the next day (12 h) before dosing or are allowed free access to food (depending on whether the PK will be done on fasted or fed animals). In all cases, animals has access to water ad libidum. PO dosing is done by gavage using a curved gavage needle (with rounded tip). All animals are observed for few seconds after injection to make sure there are no side effects. For IV administration, dosing (mice and rat) is done by the tail vein. Compound administration is done by slow (15-60 sec) bolus or by slow IV infusion (up to 1 h) using a calibrated syringe pump. For subcutaneous (dorsal region) and intraperitoneal injections, dosing is done with the appropriate needle and volume as per IACUC guidelines. GPR-405 was administered once by SC injection to each animal in the test group using a hypodermic needle attached to a syringe. No dose was administered to control animals.
Sampling is done via the tail, jugular or saphenous vein. Typical time for blood collection for PK are Pre, 5, 15, 30 minutes, 1 h, 2 h, 4 h, 8 h, 24 h. For mice, animals are terminated at each collection (cardiac puncture post-euthanasia). For rats, 200 μl are collected at each time point (max 3 time points per rat in 24 h). Plasma harvested from blood is mixed with 8.5% phosphoric acid (2% v/v of plasma). All plasma samples collected are stored in a freezer, set to maintain −80° C. until bioanalysis. At necropsy, tissues, organs and/or biological fluid are collected, as needed, for analysis. Urine collection is done using metabolic cages when required.
A stock solution of the test article is prepared at 250 μg/mL in DMSO. This solution is quantitatively added to blank mouse or rat plasma to generate a calibration curve. The linear range is from 0.25 to 250 ng/mL. A 175 μL aliquot of plasma is removed from each calibrant tube and processed using solid phase extraction (SPE). Study samples are first diluted with blank control mouse or rat plasma, and 175 μL is aliquoted for processing using SPE. An internal standard working solution (ISWS) is added to each calibrant and study sample (GPR-227 at 100 ng/mL in water). Plasma proteins are precipitated with 175 μL of methanol with 0.5% acetic acid (v/v). After centrifugation at 14,800 RPM for 10 minutes, a 300 μL aliquot of supernatant is diluted in water with 4% phosphoric acid (v/v). The entire diluted sample is extracted by SPE using a Waters Oasis HLB 96-well μElution plate. Samples are washed twice using a solution of acidified water (0.1% TFA, v/v) and 15% MeOH in water (v/v). Purified extracts are eluted into a 96-well collection plate using 40 μL of elution solvent. Standards and study samples are injected onto a Thermo Q-exactive LC-MS/MS system. Chromatographic separation is performed using a reversed-phase C18 HPLC column (Waters CSH C18, 50×2.1 mm, 2.5 μm). Analyte and internal standard are detected using the targeted selected ion monitoring (tSIM) scan mode. […]

[2] = Pharmacokinetic studies of THR-123 and GPR-294 i.v. and s.c. (FIG. 13, FIGS. 5-8); assay type: in vivo; conditions: in vivo; s.c. versus i.v., FIG. 13; read-out: bioavailable by sub-cutaneous administration
Procedure: A stock solution of THR-123 was prepared at 250 μg/mL in DMSO. This solution was quantitatively added to blank mouse plasma to generate a calibration curve. The linear range was from 0.25 to 250 ng/mL. A 175 μL aliquot of plasma from removed from each calibrant tube and processed using solid phase extraction (SPE). Study samples were first diluted with blank control mouse plasma, and 175 μL was aliquoted for processing using SPE. An internal standard working solution (ISWS) was added to each calibrant and study sample (GPR-227 at 100 ng/mL in water). Plasma proteins were precipitated with 175 μL of methanol with 0.5% acetic acid (v/v). After centrifugation at 14,800 RPM for 10 minutes, a 300 μL aliquot of supernatant was diluted in water with 4% phosphoric acid (v/v). The entire diluted sample was extracted by SPE using a Waters Oasis HLB 96-well μElution plate. Samples were washed twice using a solution of acidified water (0.1% TFA, v/v) and 15% MeOH in water (v/v). Purified extracts were eluted into a 96-well collection plate using 40 μL of elution solvent. Standards and study samples were injected onto a Thermo Q-exactive LC-MS/MS system. Chromatographic separation was performed using a reversed-phase C18 HPLC column (Waters CSH C18, 50×2.1 mm, 2.5 μm). Analyte and internal standard were detected using the targeted selected ion monitoring (tSIM) scan mode. Calibration curves were generated by using a weighted (1/concentration^2) linear regression of the peak area ratios (analyte/internal standard) versus the nominal concentration of the calibration standards. The concentration of the analyte in the study samples was determined by back-calculating the peak area ratios obtained using the linear regression and applying the appropriate dilution factors.
The study described herein involved single (mouse) or multiple (rat) blood collections after test article administration. Test articles are given by oral (PO), intravenous (IV), subcutaneous (SC) or intraperitoneal (IP) routes. All animals have a five day acclimatization period before dosing. Body weights are recorded prior to dosing. […]

[3] = mouse, in vivo, 1 mg/kg sc in CD1 mice

For `CC(C)C[C@@H]1NC(=O)[C@H](C(C)C)NC(=O)[C@H](CCC(N)=O)NC(=O)[C@H](CO)NC(=O)[C@H](CO)NC(=O)[C@H](CC(N)=O)NC(=O)[C@H](Cc2ccccc2)NC(=O)[C@H](Cc2ccc(O)cc2)NC(=O)[C@H](Cc2ccc(O)cc2)NC(=O)[C@@H](N)CSSC[C@@H](C(=O)N[C@@H](CCCCN)C(=O)N[C@@H](CCCNC(=N)N)C(=O)N[C@H](Cc2ccc(O)cc2)C(=O)N[C@@H](CCCNC(=N)N)C(=O)N[C@@H](CO)C(=O)O)NC1=O` [GPR-405, Cys-Tyr-Tyr-Phe-Asn-Ser-Ser-Gln-Val-Leu-Cys-Lys-Arg-(D)Tyr-Arg-Ser] (H-CYYFNSSQVLCKR[dY]RS-OH; disulfide 1-11), which “AUMC(0-t)” value ([1]; 1 mg/kg sc in CD1 mice) is on record?
Its value is 196073 ng*min^2/ml.

What about the “CL*F” value ([1]; 1 mg/kg sc in CD1 mice) of the same molecule?
Its value is 3.83 mL/min.

What about the “CL/kg*F” value ([1]; 1 mg/kg sc in CD1 mice) of the same molecule?
The value was 120 mL/min/kg.

What about the KeI ([1]; 1 mg/kg sc in CD1 mice) of the same molecule?
The KeI was 0.04 min⁻¹.

And the Tmax ([1]; 1 mg/kg sc in CD1 mice)?
The Tmax was 5 min.

And the “Vd*F” value ([1]; 1 mg/kg sc in CD1 mice)?
The value was 172.28 mL.

What about the Vss ([1]; 1 mg/kg sc in CD1 mice) of the same molecule?
The Vss was 90.22 mL.

And the “Terminal T1/2” value ([1]; 1 mg/kg sc in CD1 mice, based on terminal decay rate)?
Its value is 31.21 min.

And the “K′ (terminal decay rate)” value ([1]; 1 mg/kg sc in CD1 mice, log-linear fit of 30, 60, 240 min)?
The value was 0.022 min⁻¹.

And the “clearance compared with renal clearance” value ([1]; 1 mg/kg sc in CD1 mice, mouse GFR approximately 10 ml/min/kg)?
The value was “about ten times greater than renal clearance”.

And the half-life ([1]; mouse, in vivo, sc, 1 mg/kg, 1 mg/kg sc in CD1 mice, based on terminal decay rate, read-out: Terminal T1/2)?
The half-life was ~30 min.

What about the half-life ([1]; mouse, in vivo, sc, 1 mg/kg, 1 mg/kg sc in CD1 mice, read-out: Biological T1/2 (overall half-life)) of the same molecule?
The half-life was ~16 min.

And the Tmax ([1]; mouse, in vivo, sc, 1 mg/kg, 1 mg/kg sc in CD1 mice, read-out: Tmax)?
The Tmax was < 5 min.

What about the AUC(0-inf) [1, 3] of the same molecule?
The AUC(0-inf) was 142 ng·h/mL.

And the AUC(0-t) [1, 3]?
Its AUC(0-t) is 142 ng·h/mL.

And the Cmax [1, 3]?
The Cmax was 504 ng/mL.

And the MRT [1, 3]?
Its MRT is 23.1 min.

And the bioavailability ([1]; mouse, in vivo, sc, mice, preliminary data)?
Its bioavailability is ~60%.

What about the level at 5 min ([1]; mouse, plasma, 1 mg/kg sc, CD1 mice, 5 min, read-out: Mean Concentration) of the same molecule?
The level at 5 min was 504 ng/mL.

And the level at 0.25 h ([1]; mouse, plasma, 1 mg/kg sc, CD1 mice, 15 min, read-out: Mean Concentration)?
The level at 0.25 h was 117 ng/mL.

And the level at 0.5 h ([1]; mouse, plasma, 1 mg/kg sc, CD1 mice, 30 min, read-out: Mean Concentration)?
The level at 0.5 h was 68.8 ng/mL.

And the level at 1 h ([1]; mouse, plasma, 1 mg/kg sc, CD1 mice, 60 min, read-out: Mean Concentration)?
Its level at 1 h is 15.9 ng/mL.

And the level at 4 h ([1]; mouse, plasma, 1 mg/kg sc, CD1 mice, 240 min, read-out: Mean Concentration)?
Its level at 4 h is 0.4 ng/mL.

What about the “Final Concentration (individual mouse)” value ([1]; plasma, 1 mg/kg sc, CD1 mice, 5 min, 1 mg/kg) of the same molecule?
Its value is 596.4 ng/ml and 411.9 ng/ml and 62.4 (outlier) ng/ml.

What about the “Final Concentration (individual mouse)” value ([1]; plasma, 1 mg/kg sc, CD1 mice, 15 min, 1 mg/kg) of the same molecule?
The value was 114.2 ng/mL and 118.3 ng/mL and 118.4 ng/mL.

And the “Final Concentration (individual mouse)” value ([1]; plasma, 1 mg/kg sc, CD1 mice, 30 min, 1 mg/kg)?
Its value is 49.0 ng/mL and 88.6 ng/mL.

What about the “Final Concentration (individual mouse)” value ([1]; plasma, 1 mg/kg sc, CD1 mice, 60 min, 1 mg/kg) of the same molecule?
Its value is 23.0 ng/mL and 11.9 ng/mL and 12.8 ng/mL.

What about the “Final Concentration (individual mouse)” value ([1]; plasma, 1 mg/kg sc, CD1 mice, 240 min) of the same molecule?
Its value is 0.4 ng/mL.

Which bioavailability [2] does the source give for `CC(C)C[C@@H]1NC(=O)[C@H](C(C)C)NC(=O)[C@H](CC(N)=O)NC(=O)[C@H](CO)NC(=O)[C@H](CO)NC(=O)[C@H](CC(=O)O)NC(=O)[C@H](CC(=O)O)NC(=O)[C@H](Cc2ccccc2)NC(=O)[C@H](Cc2ccc(O)cc2)NC(=O)[C@@H](N)CSSC[C@@H](C(=O)N[C@@H](CCCCN)C(=O)N[C@@H](CCCCN)C(=O)N[C@@H](Cc2ccc(O)cc2)C(=O)N[C@@H](CCCNC(=N)N)C(=O)N[C@@H](CO)C(=O)O)NC1=O` [THR-123, Cys-Tyr-Phe-Asp-Asp-Ser-Ser-Asn-Val-Leu-Cys-Lys-Lys-Tyr-Arg-Ser] (H-CYFDDSSNVLCKKYRS-OH; disulfide 1-11) here?
The bioavailability was 81%.
